In PubChem BioAssay AID2060508 (Molecular Pharmacology Branch, DTP, NCI, 2025):

System: 454973-116-R2-J3-PDC spheroids, viability, % test/control
Experiment: Anticancer human tumor 454973-116-R2-J3-PDC patient-derived pancreatic carcinoma cell line growth inhibition [GQUAD]
Settings: spheroids with HUVEC and MSC; for IC50: curve of first compound; for viability, T/C: stronger effect = lower value
In short: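 Viability of tumor cells grown as complex spheroids with endothelial and stromal cells, exposed to drug combinations. Top concentration at or near clinical Cmax (else 10 microM), diluted in half-log increments.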

[1] = second compound 0.0316 µM, first compound 0.0316 µM
[2] = second compound 0.0316 µM, first compound 0.1 µM
[3] = second compound 0.0316 µM, first compound 0.316 µM
[4] = second compound 0.0316 µM, first compound 1 µM
[5] = second compound 0.0316 µM, first compound 3.16 µM
[6] = second compound 0.0316 µM, first compound 10 µM
[7] = second compound 0.1 µM, first compound 0.0316 µM
[8] = second compound 0.1 µM, first compound 0.1 µM
[9] = second compound 0.1 µM, first compound 0.316 µM
[10] = second compound 0.1 µM, first compound 1 µM
[11] = second compound 0.1 µM, first compound 3.16 µM
[12] = second compound 0.1 µM, first compound 10 µM
[13] = second compound 0.316 µM, first compound 0.0316 µM
[14] = second compound 0.316 µM, first compound 0.1 µM
[15] = second compound 0.316 µM, first compound 0.316 µM
[16] = second compound 0.316 µM, first compound 1 µM
[17] = second compound 0.316 µM, first compound 3.16 µM
[18] = second compound 0.316 µM, first compound 10 µM
[19] = second compound 1 µM, first compound 0.0316 µM
[20] = second compound 1 µM, first compound 0.1 µM
[21] = second compound 1 µM, first compound 0.316 µM
[22] = second compound 1 µM, first compound 1 µM
[23] = second compound 1 µM, first compound 3.16 µM
[24] = second compound 1 µM, first compound 10 µM
[25] = second compound 3.16 µM, first compound 0.0316 µM
[26] = second compound 3.16 µM, first compound 0.1 µM
[27] = second compound 3.16 µM, first compound 0.316 µM
[28] = second compound 3.16 µM, first compound 1 µM
[29] = second compound 3.16 µM, first compound 3.16 µM
[30] = second compound 3.16 µM, first compound 10 µM
[31] = second compound 10 µM, first compound 0.0316 µM
[32] = second compound 10 µM, first compound 0.1 µM
[33] = second compound 10 µM, first compound 0.316 µM
[34] = second compound 10 µM, first compound 1 µM
[35] = second compound 10 µM, first compound 3.16 µM
[36] = second compound 10 µM, first compound 10 µM
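Further: spheroids exposed to compounds for seven days.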
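Wherever viability, T/C is given: 100% = DMSO vehicle control viability.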

CC(=O)O[C@H]1C(=O)[C@@]2(C)[C@H]([C@H](OC(=O)c3ccccc3)[C@]3(O)C[C@H](OC(=O)[C@H](O)[C@@H](NC(=O)c4ccccc4)c4ccccc4)C(C)=C1C3(C)C)[C@]1(OC(C)=O)CO[C@@H]1C[C@@H]2O + Cc1[nH]c2ccc(F)cc2c1-c1nc2c3cccnc3c3ncccc3c2[nH]1
IC50 (second compound 0.0316 µM): < 0.0316 µM
IC50 (second compound 0.1 µM): < 0.0316 µM
IC50 (second compound 0.316 µM): < 0.0316 µM
IC50 (second compound 1 µM): < 0.0316 µM
IC50 (second compound 3.16 µM): < 0.0316 µM
IC50 (second compound 10 µM): < 0.0316 µM
viability, T/C [1]: 15.2%
viability, T/C [2]: 8.26%
viability, T/C [3]: 7.28%
viability, T/C [4]: 6.32%
viability, T/C [5]: 7.13%
viability, T/C [6]: 7.83%
viability, T/C [7]: 14.5%
viability, T/C [8]: 9.64%
viability, T/C [9]: 7.87%
viability, T/C [10]: 6.95%
viability, T/C [11]: 7.87%
viability, T/C [12]: 8.54%
viability, T/C [13]: 14.6%
viability, T/C [14]: 9.07%
viability, T/C [15]: 5.61%
viability, T/C [16]: 5.86%
viability, T/C [17]: 5.85%
viability, T/C [18]: 9.29%
viability, T/C [19]: 12.3%
viability, T/C [20]: 7.44%
viability, T/C [21]: 6.58%
viability, T/C [22]: 5.96%
viability, T/C [23]: 7.37%
viability, T/C [24]: 10.1%
viability, T/C [25]: 11.1%
viability, T/C [26]: 8.56%
viability, T/C [27]: 7.65%
viability, T/C [28]: 6.65%
viability, T/C [29]: 6.16%
viability, T/C [30]: 9.4%
viability, T/C [31]: 12.5%
viability, T/C [32]: 8.79%
viability, T/C [33]: 7.16%
viability, T/C [34]: 7.79%
viability, T/C [35]: 7.84%
viability, T/C [36]: 7.93%

CCCS(=O)(=O)Nc1ccc(F)c(C(=O)c2c[nH]c3ncc(-c4ccc(Cl)cc4)cc23)c1F + Cc1[nH]c2ccc(F)cc2c1-c1nc2c3cccnc3c3ncccc3c2[nH]1
IC50 (second compound 0.0316 µM): 5.97 µM
IC50 (second compound 0.1 µM): 5.65 µM
IC50 (second compound 0.316 µM): 6.27 µM
IC50 (second compound 1 µM): 6.3 µM
IC50 (second compound 3.16 µM): 6.45 µM
IC50 (second compound 10 µM): 6.4 µM
viability, T/C [1]: 114%
viability, T/C [2]: 117%
viability, T/C [3]: 127%
viability, T/C [4]: 116%
viability, T/C [5]: 101%
viability, T/C [6]: 8.25%
viability, T/C [7]: 112%
viability, T/C [8]: 118%
viability, T/C [9]: 113%
viability, T/C [10]: 118%
viability, T/C [11]: 92.7%
viability, T/C [12]: 8.04%
viability, T/C [13]: 112%
viability, T/C [14]: 107%
viability, T/C [15]: 102%
viability, T/C [16]: 113%
viability, T/C [17]: 113%
viability, T/C [18]: 9.5%
viability, T/C [19]: 104%
viability, T/C [20]: 102%
viability, T/C [21]: 114%
viability, T/C [22]: 128%
viability, T/C [23]: 115%
viability, T/C [24]: 8.32%
viability, T/C [25]: 109%
viability, T/C [26]: 115%
viability, T/C [27]: 114%
viability, T/C [28]: 98.6%
viability, T/C [29]: 112%
viability, T/C [30]: 13.3%
viability, T/C [31]: 107%
viability, T/C [32]: 101%
viability, T/C [33]: 116%
viability, T/C [34]: 110%
viability, T/C [35]: 106%
viability, T/C [36]: 14.4%
